Laboratory results published in ChEMBL document CHEMBL5096166, “Discovery of an Orally Efficacious Positive Allosteric Modulator of the Glucagon-like Peptide-1 Receptor” (J Med Chem, 2021).
Calls of active or inactive are those of the source. No cut-off for these calls is given here.

Assays:
[1] = target: T1, Glucagon-like peptide 1 receptor (Homo sapiens, UniProt P43220); experiment: Positive allosteric modulator activity at human GLP-1R expressed in HEK293 cells assessed as potentiation of EC20 GLP-1(9-36) induced cAMP accumulation in presence of IBMX relative to GLP-1(9-36); assay type: functional, cell-based
[2] = target: T1, Glucagon-like peptide 1 receptor; experiment: Positive allosteric modulator activity at human GLP-1R expressed in HEK293 cells assessed as potentiation of GLP-1(9-36) induced cAMP accumulation by measuring maximal efficacy in presence of IBMX relative to GLP-1(9-36); assay type: functional, cell-based; details: filed as positive allosteric modulator
[3] = target: T1, Glucagon-like peptide 1 receptor; experiment: Positive allosteric modulator activity at human GLP-1R expressed in HEK293 cells assessed as potentiation of EC20 GLP-1(9-36) induced cAMP accumulation by measuring maximal efficacy in presence of IBMX relative to GLP-1(9-36); assay type: functional, cell-based; details: filed as positive allosteric modulator
[4] = target: T1, Glucagon-like peptide 1 receptor; experiment: Positive allosteric modulator activity at human GLP-1R expressed in HEK293 cells assessed as fold increase in potentiation of GLP-1(9-36) induced cAMP accumulation in presence of IBMX relative to GLP-1(9-36); assay type: functional, cell-based
Mus musculus [5] = experiment: (§1) Anti-hyperglycemic activity in overnight-fasted GIPR KO C57BL/6 mouse assessed as reduction in blood glucose AUC at 10 mg/kg, po pretreated with compound for 30 mins followed by dextrose addition measured every 15 mins for 60 mins by oral glucose tolerance test relative to control; assay type: functional; set-up: scale not given: the % may be the effect or the level left; details: time 90 min, 1.5 h
[6] = Clearance in CD1 mouse at 1 mg/kg, iv measured upto 8 hrs by LC-MS/MS analysis; assay type: ADME, organism-based; details: in vivo
[7] = Half life in Sprague-Dawley rat at 3 mg/kg, po measured upto 16 hrs by LC-MS/MS analysis; assay type: ADME, organism-based; details: in vivo
[8] = Half life in CD1 mouse at 1 mg/kg, iv measured upto 8 hrs by LC-MS/MS analysis; assay type: ADME, organism-based; details: in vivo
[9] = target: T1, Glucagon-like peptide 1 receptor; experiment: Agonist activity at human GLP-1R expressed in HEK293 cells assessed as potentiation of GLP-1(9-36) induced cAMP accumulation in presence of IBMX; assay type: functional, cell-based
[10] = target: T1, Glucagon-like peptide 1 receptor; experiment: Positive allosteric modulator activity at human GLP-1R transfected in rat INS-1 832/13 cells assessed as fold increase in potentiation of GLP-1(7-36) induced cAMP accumulation at 0.1 uM; assay type: functional, cell-based
[11] = target: T1, Glucagon-like peptide 1 receptor; experiment: Positive allosteric modulator activity at human GLP-1R transfected in rat INS-1 832/13 cells assessed as potentiation of GLP-1(9-36) induced cAMP accumulation; assay type: functional, cell-based
[12] = target: T1, Glucagon-like peptide 1 receptor; experiment: Agonist activity at human GLP-1R expressed in CHO-K1 cells assessed as fold increase in potentiation of EC50 GLP-1(7-36) induced beta-arrestin recruitment; assay type: functional, cell-based
[13] = Oral bioavailability in CD1 mouse at 3 mg/kg measured upto 16 hrs by LC-MS/MS analysis; assay type: ADME, organism-based; details: in vivo
[14] = target: T1, Glucagon-like peptide 1 receptor; experiment: Agonist activity at human GLP-1R expressed in HEK293 cells assessed as potentiation of GLP-1(9-36) induced cAMP accumulation by measuring maximal efficacy at 0.12 uM in presence of IBMX relative to GLP-1(9-36); assay type: functional, cell-based; details: filed as agonist
[15] = Half life in Beagle dog at 1 mg/kg, iv measured upto 8 hrs by LC-MS/MS analysis; assay type: ADME, organism-based, Canis lupus familiaris; details: in vivo
[16] = Clearance in Beagle dog at 1 mg/kg, iv measured upto 8 hrs by LC-MS/MS analysis; assay type: ADME, organism-based, Canis lupus familiaris; details: in vivo
[17] = Volume of distribution at steady state in Sprague-Dawley rat at 1 mg/kg, iv measured upto 8 hrs by LC-MS/MS analysis; assay type: ADME, organism-based; details: in vivo, read-out: Vdss
[18] = Tmax in CD1 mouse at 3 mg/kg, po measured upto 16 hrs by LC-MS/MS analysis; assay type: ADME, organism-based; details: in vivo
[19] = Cmax in Beagle dog at 1 mg/kg, iv measured upto 8 hrs by LC-MS/MS analysis; assay type: ADME, organism-based, Canis lupus familiaris; set-up: time < 8 hrs, dose 1 mg/kg, route iv; details: in vivo
[20] = Clearance in Sprague-Dawley rat at 1 mg/kg, iv measured upto 8 hrs by LC-MS/MS analysis; assay type: ADME, organism-based; details: in vivo
[21] = Cmax in CD1 mouse at 3 mg/kg, po measured upto 16 hrs by LC-MS/MS analysis; assay type: ADME, organism-based; set-up: dose 3 mg/kg, time < 16 hrs, route po; details: in vivo
[22] = Volume of distribution at steady state in CD1 mouse at 1 mg/kg, iv measured upto 8 hrs by LC-MS/MS analysis; assay type: ADME, organism-based; details: in vivo, read-out: Vdss
[23] = Half life in Sprague-Dawley rat at 1 mg/kg, iv measured upto 8 hrs by LC-MS/MS analysis; assay type: ADME, organism-based; details: in vivo
[24] = Volume of distribution at steady state in Beagle dog at 1 mg/kg, iv measured upto 8 hrs by LC-MS/MS analysis; assay type: ADME, organism-based, Canis lupus familiaris; details: in vivo, read-out: Vdss
[25] = Cmax in CD1 mouse at 1 mg/kg, iv measured upto 8 hrs by LC-MS/MS analysis; assay type: ADME, organism-based; set-up: time < 8 hrs, dose 1 mg/kg, route iv; details: in vivo
[26] = AUC in Sprague-Dawley rat at 1 mg/kg, iv measured upto 8 hrs by LC-MS/MS analysis; assay type: ADME, organism-based; set-up: time < 8 hrs, dose 1 mg/kg, route iv; details: in vivo
[27] = target: T1, Glucagon-like peptide 1 receptor; experiment: Positive allosteric modulator activity at human GLP-1R transfected in rat INS-1 832/13 cells assessed as increase in GLP-1(9-36) induced insulin levels at 3 uM in presence of high glucose; assay type: cell-based; details: filed as positive allosteric modulator
Mus musculus [28] = experiment: (§2) Anti-hyperglycemic activity in overnight-fasted GIPR KO C57BL/6 mouse assessed as reduction in blood glucose AUC at 30 mg/kg, po pretreated with compound for 30 mins followed by dextrose addition measured every 15 mins for 60 mins by oral glucose tolerance test relative to control; assay type: functional; set-up: scale not given: the % may be the effect or the level left; details: time 90 min, 1.5 h
Mus musculus [29] = experiment: as §1, with “60 mins in presence of sitagliptin by oral” for “60 mins by oral”; assay type: functional; set-up: scale not given: the % may be the effect or the level left; details: time 90 min, 1.5 h
[30] = target: T1, Glucagon-like peptide 1 receptor; experiment: Agonist activity at human GLP-1R expressed in CHO-K1 cells assessed as potentiation of GLP-1(9-36) induced beta-arrestin recruitment by measuring maximal efficacy relative to GLP-1(9-36); assay type: functional, cell-based
[31] = target: T1, Glucagon-like peptide 1 receptor; experiment: Partial agonist activity at human GLP-1R expressed in HEK293 cells assessed as potentiation of GLP-1(9-36) induced cAMP accumulation in presence of IBMX; assay type: functional, cell-based
[32] = Tmax in Sprague-Dawley rat at 3 mg/kg, po measured upto 16 hrs by LC-MS/MS analysis; assay type: ADME, organism-based; details: in vivo
[33] = target: T1, Glucagon-like peptide 1 receptor; experiment: Agonist activity at human GLP-1R expressed in CHO-K1 cells assessed as potentiation of GLP-1(9-36) induced beta-arrestin recruitment; assay type: functional, cell-based
[34] = target: T1, Glucagon-like peptide 1 receptor; experiment: Partial agonist activity at human GLP-1R expressed in HEK293 cells assessed as potentiation of GLP-1(9-36) induced cAMP accumulation by measuring maximal efficacy in presence of IBMX relative to GLP-1(9-36); assay type: functional, cell-based
Mus musculus [35] = experiment: as §2, with “60 mins in presence of sitagliptin by oral” for “60 mins by oral”; assay type: functional; set-up: scale not given: the % may be the effect or the level left; details: time 90 min, 1.5 h
[36] = AUC in CD1 mouse at 3 mg/kg, po measured upto 16 hrs by LC-MS/MS analysis; assay type: ADME, organism-based; set-up: dose 3 mg/kg, time < 16 hrs, route po; details: in vivo
[37] = Oral bioavailability in Sprague-Dawley rat at 3 mg/kg measured upto 16 hrs by LC-MS/MS analysis; assay type: ADME, organism-based; details: in vivo
[38] = Cmax in Sprague-Dawley rat at 1 mg/kg, iv measured upto 8 hrs by LC-MS/MS analysis; assay type: ADME, organism-based; set-up: dose 1 mg/kg, time < 8 hrs, route iv; details: in vivo
[39] = AUC in Sprague-Dawley rat at 3 mg/kg, po measured upto 16 hrs by LC-MS/MS analysis; assay type: ADME, organism-based; set-up: dose 3 mg/kg, time < 16 hrs, route po; details: in vivo
[40] = Cmax in Sprague-Dawley rat at 3 mg/kg, po measured upto 16 hrs by LC-MS/MS analysis; assay type: ADME, organism-based; set-up: time < 16 hrs, dose 3 mg/kg, route po; details: in vivo
[41] = target: T1, Glucagon-like peptide 1 receptor; experiment: Agonist activity at human GLP-1R expressed in HEK293 cells assessed as potentiation of GLP-1(7-36) induced cAMP accumulation; assay type: functional, cell-based
[42] = Half life in CD1 mouse at 3 mg/kg, po measured upto 16 hrs by LC-MS/MS analysis; assay type: ADME, organism-based; details: in vivo
[43] = target: T1, Glucagon-like peptide 1 receptor; experiment: Positive allosteric modulator activity at human GLP-1R transfected in rat INS-1 832/13 cells assessed as potentiation of GLP-1(9-36) induced cAMP accumulation by measuring maximal efficacy at 3 uM relative to GLP-1(9-36); assay type: functional, cell-based; details: filed as positive allosteric modulator
[44] = AUC in CD1 mouse at 1 mg/kg, iv measured upto 8 hrs by LC-MS/MS analysis; assay type: ADME, organism-based; set-up: time < 8 hrs, dose 1 mg/kg, route iv; details: in vivo
[45] = AUC in Beagle dog at 1 mg/kg, iv measured upto 8 hrs by LC-MS/MS analysis; assay type: ADME, organism-based, Canis lupus familiaris; set-up: time < 8 hrs, dose 1 mg/kg, route iv; details: in vivo

T1 sequence (P43220 whole entry): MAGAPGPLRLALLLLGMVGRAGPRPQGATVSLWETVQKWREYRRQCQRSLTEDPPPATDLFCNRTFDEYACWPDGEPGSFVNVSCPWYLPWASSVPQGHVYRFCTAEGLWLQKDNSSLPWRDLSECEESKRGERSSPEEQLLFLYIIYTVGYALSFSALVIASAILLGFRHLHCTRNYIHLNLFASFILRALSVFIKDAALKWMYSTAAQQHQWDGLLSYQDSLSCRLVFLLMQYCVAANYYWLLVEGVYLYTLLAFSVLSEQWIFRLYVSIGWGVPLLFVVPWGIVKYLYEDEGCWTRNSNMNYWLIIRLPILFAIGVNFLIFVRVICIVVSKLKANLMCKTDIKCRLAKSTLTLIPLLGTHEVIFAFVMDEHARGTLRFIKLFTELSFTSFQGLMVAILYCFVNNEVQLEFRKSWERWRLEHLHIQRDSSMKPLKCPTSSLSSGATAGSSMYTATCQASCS

Molecule CC(C(=O)O)c1ccccc1-c1cc2c(cn1)ncn2[C@H](C)c1c(Cl)ccc(C2CC2)c1Cl (some centres not stated) has an EC50 [1] of 14 nM, an Emax [2] of 103% and an Emax [3] of 104%. It also gave a fold change (FC) [4] of 7300.
In the case of N[C@@H](CC(=O)N1CCn2c(nnc2C(F)(F)F)C1)Cc1cc(F)c(F)cc1F [SITAGLIPTIN], the Activity (Mus musculus [5]) is reported as 18%.
Work on C[C@H](c1c(Cl)ccc(C2CC2)c1Cl)n1cnc2cnc(Br)cc21 yielded an EC50 [1] of 1800 nM, an Emax [2] of 110% and an Emax [3] of 113%. For the same molecule, the fold change (FC) [4] was 300.
For C[C@H](c1c(Cl)ccc(C2CC2)c1Cl)n1cnc2cnc(-c3ccccc3[C@@H](C)C(=O)O)cc21, the EC50 [1] was 270 nM, the clearance [6] was 9 mL/min/kg and the half-life [7] was 2.9 h. The half-life [8] was 2.1 h, the Emax [2] was 102% and the EC50 [9] was 7 nM. For the same molecule, the fold change (FC) [10] was 2.7, the EC50 [11] was 7 nM and the fold change (FC) [12] was 1.9. For the same molecule, the bioavailability [13] was 67%, the Emax [14] was 92% and the half-life [15] was 0.6 h. It also gave a clearance [16] of 18.5 mL/min/kg, a Vd [17] of 1.6 L/kg and a Tmax [18] of 0.58 h. The Cmax [19] was 6870 nM, the clearance [20] was 41.9 mL/min/kg and the Cmax [21] was 2040 nM. For the same molecule, the Vd [22] was 1.6 L/kg, the half-life [23] was 0.6 h and the Vd [24] was 0.3 L/kg. The Emax [3] was 98%, the Cmax [25] was 1430 nM and the AUC at 8 h [26] was 0.859 µM·h. The Activity [27] was “Active”, the Activity (Mus musculus [28]) was 40% and the Activity (Mus musculus [29]) was 29%. For the same molecule, the Emax [30] was 10%, the Activity (Mus musculus [5]) was 9% and the EC50 [31] was 1800 nM. The Tmax [32] was 1.8 h, the EC50 [33] was 12 nM and the Emax [34] was 13%. It also gave a fold change (FC) [4] of 830, an Activity (Mus musculus [35]) of 65% and an AUC at 16 h [36] of 7.3 µM·h. It also gave a bioavailability [37] of 45%, a Cmax [38] of 1420 nM and an AUC at 16 h [39] of 1.16 µM·h. The Cmax [40] was 183 nM, the EC50 [41] was 0.085 nM and the half-life [42] was 1.6 h. For the same molecule, the Emax [43] was 87%, the AUC at 8 h [44] was 3.64 µM·h and the AUC at 8 h [45] was 1.88 µM·h.
With COc1ccc(Cl)c([C@@H](C)n2cnc3ccc(Br)cc32)c1Cl the EC50 [1] was 800 nM, the Emax [2] was 115% and the Emax [3] was 102%. The fold change (FC) [4] was 250.
With COc1ccc(Cl)c([C@@H](C)n2cnc3ccc(-c4ccccc4[C@H]4CCCCN4)cc32)c1Cl the EC50 [1] was 24 nM, the Emax [2] was 88% and the Emax [3] was 120%. The fold change (FC) [4] was 15000.
